# Source: PubChem BioAssay (NCI)
#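 A five-concentration, 48-hour dose response in 96-well plates underlies each endpoint, interpolated linearly between surrounding concentrations. The concentration for 50% growth inhibition is given as GI50. Definition used: TGI = concentration required for complete inhibition of growth.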
# Experiments:
# Test in all cases: growth of human tumour cells (NCI), 48 h
# NCI-H460 lung = tested on: NCI-H460 lung
# HCT-15 colon = tested on: HCT-15 colon
# K-562 leukemia = tested on: K-562 leukemia
# MCF7 breast = tested on: MCF7 breast
# SK-MEL-2 melanoma = tested on: SK-MEL-2 melanoma
# NCI-H522 lung = tested on: NCI-H522 lung
# SK-MEL-5 melanoma = tested on: SK-MEL-5 melanoma
# SW-620 colon = tested on: SW-620 colon
# SK-MEL-28 melanoma = tested on: SK-MEL-28 melanoma
# MDA-MB-231 breast = tested on: MDA-MB-231 breast
# IGROV1 ovarian = tested on: IGROV1 ovarian
# UACC-257 melanoma = tested on: UACC-257 melanoma
# CCRF-CEM leukemia = tested on: CCRF-CEM leukemia
# OVCAR-8 ovarian = tested on: OVCAR-8 ovarian
# SN12C renal = tested on: SN12C renal
# TK-10 renal = tested on: TK-10 renal
# T-47D breast = tested on: T-47D breast
# A498 renal = tested on: A498 renal
# UACC-62 melanoma = tested on: UACC-62 melanoma
# HS 578T breast = tested on: HS 578T breast
# RXF 393 renal = tested on: RXF 393 renal
# A549 NSCLC = tested on: A549 NSCLC
# SNB-19 CNS = tested on: SNB-19 CNS
# SK-OV-3 ovarian = tested on: SK-OV-3 ovarian
# BT-549 breast = tested on: BT-549 breast
# 786-0 renal = tested on: 786-0 renal
# NCI/ADR-RES ovarian = tested on: NCI/ADR-RES ovarian
# NCI-H23 lung = tested on: NCI-H23 lung
# PC-3 prostate = tested on: PC-3 prostate
# SR leukemia = tested on: SR leukemia
# NCI-H226 lung = tested on: NCI-H226 lung
# MALME-3M melanoma = tested on: MALME-3M melanoma
# HCT-116 colon = tested on: HCT-116 colon
# ACHN renal = tested on: ACHN renal
# MDA-MB-468 breast = tested on: MDA-MB-468 breast
# HT29 colon = tested on: HT29 colon
# MOLT-4 leukemia = tested on: MOLT-4 leukemia
# SF-268 CNS = tested on: SF-268 CNS
# LOX IMVI melanoma = tested on: LOX IMVI melanoma
# MDA-MB-435 = tested on: MDA-MB-435
# COLO 205 colon = tested on: COLO 205 colon
# OVCAR-5 ovarian = tested on: OVCAR-5 ovarian
# UO-31 renal = tested on: UO-31 renal
# KM12 colon = tested on: KM12 colon
# DU-145 prostate = tested on: DU-145 prostate
# U251 CNS = tested on: U251 CNS
# SNB-75 CNS = tested on: SNB-75 CNS
# HOP-62 NSCLC = tested on: HOP-62 NSCLC
# HOP-92 NSCLC = tested on: HOP-92 NSCLC
# SF-295 CNS = tested on: SF-295 CNS
# HL-60(TB) leukemia = tested on: HL-60(TB) leukemia
# M14 melanoma = tested on: M14 melanoma
# RPMI-8226 leukemia = tested on: RPMI-8226 leukemia
# EKVX NSCLC = tested on: EKVX NSCLC
# HCC-2998 colon = tested on: HCC-2998 colon
# OVCAR-3 ovarian = tested on: OVCAR-3 ovarian
# OVCAR-4 ovarian = tested on: OVCAR-4 ovarian
# SF-539 CNS = tested on: SF-539 CNS
# CAKI-1 renal = tested on: CAKI-1 renal
smiles,measurement,setting,value
CN1CCN(Cc2ccc(C(=O)Nc3cccc(C#Cc4cccc5[nH]nc(N)c45)c3)cc2C(F)(F)F)CC1,GI50,NCI-H460 lung,982 nM
same,TGI,NCI-H460 lung,2530 nM
same,GI50,HCT-15 colon,648 nM
same,TGI,HCT-15 colon,1780 nM
same,TGI,K-562 leukemia,1020 nM
same,GI50,MCF7 breast,1510 nM
same,TGI,MCF7 breast,2900 nM
same,GI50,SK-MEL-2 melanoma,1530 nM
same,TGI,SK-MEL-2 melanoma,3030 nM
same,GI50,NCI-H522 lung,752 nM
same,TGI,NCI-H522 lung,2160 nM
same,GI50,SK-MEL-5 melanoma,1490 nM
same,TGI,SK-MEL-5 melanoma,2810 nM
same,GI50,SW-620 colon,968 nM
same,TGI,SW-620 colon,2370 nM
same,GI50,SK-MEL-28 melanoma,1260 nM
same,TGI,SK-MEL-28 melanoma,2530 nM
same,GI50,MDA-MB-231 breast,401 nM
same,TGI,MDA-MB-231 breast,1730 nM
same,GI50,IGROV1 ovarian,387 nM
same,TGI,IGROV1 ovarian,1440 nM
same,GI50,UACC-257 melanoma,1360 nM
same,TGI,UACC-257 melanoma,2730 nM
same,GI50,CCRF-CEM leukemia,1170 nM
same,TGI,CCRF-CEM leukemia,3330 nM
same,GI50,OVCAR-8 ovarian,1160 nM
same,TGI,OVCAR-8 ovarian,2380 nM
same,GI50,SN12C renal,739 nM
same,TGI,SN12C renal,2140 nM
same,GI50,TK-10 renal,1750 nM
same,TGI,TK-10 renal,3170 nM
same,GI50,T-47D breast,1560 nM
same,TGI,T-47D breast,3270 nM
same,GI50,A498 renal,2380 nM
same,TGI,A498 renal,3950 nM
same,GI50,UACC-62 melanoma,1140 nM
same,TGI,UACC-62 melanoma,2390 nM
same,GI50,HS 578T breast,1330 nM
same,TGI,HS 578T breast,4640 nM
same,GI50,RXF 393 renal,571 nM
same,TGI,RXF 393 renal,1820 nM
same,GI50,A549 NSCLC,721 nM
same,TGI,A549 NSCLC,2010 nM
same,GI50,SNB-19 CNS,1840 nM
same,TGI,SNB-19 CNS,3250 nM
same,GI50,SK-OV-3 ovarian,1940 nM
same,TGI,SK-OV-3 ovarian,3470 nM
same,GI50,BT-549 breast,1800 nM
same,TGI,BT-549 breast,4060 nM
same,GI50,786-0 renal,1280 nM
same,TGI,786-0 renal,2610 nM
same,GI50,NCI/ADR-RES ovarian,1480 nM
same,TGI,NCI/ADR-RES ovarian,3320 nM
same,GI50,NCI-H23 lung,1250 nM
same,TGI,NCI-H23 lung,2530 nM
same,GI50,PC-3 prostate,1000 nM
same,TGI,PC-3 prostate,2770 nM
same,GI50,SR leukemia,1100 nM
same,TGI,SR leukemia,3350 nM
same,GI50,NCI-H226 lung,1000 nM
same,TGI,NCI-H226 lung,2180 nM
same,GI50,MALME-3M melanoma,284 nM
same,TGI,MALME-3M melanoma,1200 nM
same,GI50,HCT-116 colon,420 nM
same,TGI,HCT-116 colon,1620 nM
same,GI50,ACHN renal,409 nM
same,TGI,ACHN renal,1400 nM
same,GI50,MDA-MB-468 breast,760 nM
same,TGI,MDA-MB-468 breast,2080 nM
same,GI50,HT29 colon,603 nM
same,TGI,HT29 colon,1940 nM
same,GI50,MOLT-4 leukemia,494 nM
same,TGI,MOLT-4 leukemia,2280 nM
same,GI50,SF-268 CNS,1070 nM
same,TGI,SF-268 CNS,2420 nM
same,GI50,LOX IMVI melanoma,469 nM
same,TGI,LOX IMVI melanoma,1610 nM
same,GI50,MDA-MB-435,1090 nM
same,TGI,MDA-MB-435,2450 nM
same,GI50,COLO 205 colon,862 nM
same,TGI,COLO 205 colon,2210 nM
same,GI50,OVCAR-5 ovarian,1280 nM
same,TGI,OVCAR-5 ovarian,2600 nM
same,GI50,UO-31 renal,854 nM
same,TGI,UO-31 renal,2090 nM
same,GI50,KM12 colon,1410 nM
same,TGI,KM12 colon,2930 nM
same,GI50,DU-145 prostate,1200 nM
same,TGI,DU-145 prostate,2460 nM
same,GI50,U251 CNS,1220 nM
same,TGI,U251 CNS,2470 nM
same,GI50,SNB-75 CNS,1450 nM
same,TGI,SNB-75 CNS,3690 nM
same,GI50,HOP-62 NSCLC,1470 nM
same,TGI,HOP-62 NSCLC,2890 nM
same,GI50,HOP-92 NSCLC,285 nM
same,TGI,HOP-92 NSCLC,1400 nM
same,GI50,SF-295 CNS,1330 nM
same,TGI,SF-295 CNS,2630 nM
same,GI50,HL-60(TB) leukemia,278 nM
same,TGI,HL-60(TB) leukemia,1600 nM
same,GI50,M14 melanoma,420 nM
same,TGI,M14 melanoma,1650 nM
same,GI50,RPMI-8226 leukemia,1120 nM
same,TGI,RPMI-8226 leukemia,3260 nM
same,GI50,EKVX NSCLC,1090 nM
same,TGI,EKVX NSCLC,2300 nM
same,GI50,HCC-2998 colon,880 nM
same,TGI,HCC-2998 colon,2190 nM
same,GI50,OVCAR-3 ovarian,1000 nM
same,TGI,OVCAR-3 ovarian,2510 nM
same,GI50,OVCAR-4 ovarian,889 nM
same,TGI,OVCAR-4 ovarian,3140 nM
same,GI50,SF-539 CNS,305 nM
same,TGI,SF-539 CNS,1350 nM
same,GI50,CAKI-1 renal,1160 nM
same,TGI,CAKI-1 renal,2370 nM
